# Measurements from patent publication US6489475B2, “Method of producing heterocyclic derivatives” (Sankyo Company, Limited, priority 1994, dated 2002).
# Marks after values point to notes of the source that are not given here.
# Key:
# plasma = experiment: Plasma lipoperoxidation inhibitory effect (copper sulfate, malondialdehyde by thiobarbituric acid method); format: biochemical, rabbit; conditions: concentration 10^-5M; 37°C, 3 hours; malondialdehyde production inhibitory ratio
# Experimental: Plasma Lipoperoxidation Inhibitory Effect
# The blood was taken from male Japanese white rabbits weighing 2-2.5 kg under anesthesia and heparinized plasma was separated by a conventional method. To the plasma (2.0 ml) was added DMSO or a solution (20 μl, final concentration 10^−5 M) of test compound dissolved in DMSO, and aqueous copper sulfate solution (final concentration 5 mM) was added immediately thereafter. The mixture was incubated at 37° C. for 3 hours. After the completion of the incubation, 20% trichloroacetic acid was added to stop the reaction. Then, the mixture was centrifuged at 4° C., 4,500 rpm for 15 minutes. The lipoperoxide in the supernatant thus obtained was assayed as malondialdehyde upon color development by thiobarbituric acid method. The activity of the test compound was expressed as malondialdehyde production inhibitory ratio (%), namely, the proportion of inhibition of production of malondialdehyde as compared to control.
# Male Wister rats = experiment: Serum total cholesterol reducing effect in rats on high cholesterol feed; format: in vivo; conditions: oral, once a day for 3 days, rat
# Experimental: Serum Total Cholesterol Reducing Effect
# Male Wister rats weighing 180-200 g were bred under free access to a high cholesterol feed [added with cholesterol (1%), cholic acid (0.5%) and coconut oil (10%), Clea Japan, Inc.] for 3 days, during which period a test compound (10-100 mg/kg) suspended in 5% gum arabic solution was forcibly administered once a day orally for 3 days. Only 5% gum arabic solution was administered to control animals. After final administration, the test animals were fasted for 5 hours and the blood was taken. The serum total cholesterol level was determined using a commercially available assay kit (cholesterol-E-Test Wako, Wako Pure Chemical Industries, Ltd.). The activity of the test compound was expressed as a proportion (%) of reduction of serum total cholesterol level, namely, the proportion of reduction of serum total cholesterol as compared to control.
# ACAT = ACAT inhibitory activity (small intestine mucosa microsomes, [1-14C]-oleoyl CoA, cholesteryl oleate production); format: biochemical, rabbit; conditions: inhibition of cholesteryl oleate production vs control
# Experimental: A high cholesterol feed [a feed added with cholesterol (1%), Clea Japan, Inc.] was fed to male Japanese white rabbits weighing 2-2.5 kg at 100 g per day and the rabbits were bred for 4 weeks. The rabbits were killed by bleeding under anesthesia and small intestine was removed. The mucous membrane of small intestine was peeled, collected and homogenated. The homogenate was centrifuged at 4° C. and 10,000 rpm for 15 min. The obtained supernatant was further centrifuged at 4° C. and 41,000 rpm for 30 minutes to give microsomal fractions. Using this microsomal suspension as an enzyme sample, dimethyl sulfoxide (DMSO, 5 μl) or a test compound dissolved in DMSO (test compound solution, 5 μl), and a reaction substrate [1-^14C]-oleoyl CoA were added to a reaction buffer. After incubation at 37° C. for 5 minutes, a chloroform-methanol mixture was added to stop the reaction. Water was added thereto and mixed, and chloroform layer was separated. The solvent was evaporated to dryness, and the residue was dissolved in hexane. The mixture was subjected to thin layer chromatography using a silica gel plate. The spots of cholesteryl oleate on the silica gel plate were scraped, and quantitatively assayed on a liquid scintillation counter. The ACAT inhibitory activity of the test compound was expressed as a proportion (%) of inhibition of cholesteryl oleate, namely, the proportion of inhibition of cholesteryl oleate production as compared to control.
# LDL = LDL peroxidation inhibitory effect (copper sulfate, malondialdehyde by thiobarbituric acid method); format: biochemical, rabbit; conditions: concentration 10^-5M; 37°C, 24 hours; malondialdehyde production inhibitory ratio
# Experimental: LDL Peroxidation Inhibitory Effect
# Male Japanese white rabbits weighing 2-2.5 kg were bred on 100 g per day of a high cholesterol feed [added with cholesterol (1%), Clea Japan, Inc.] for 4 weeks. The blood was taken from carotid and plasma was obtained. Then, LDL was fractionated from the plasma by ultracentrifugation, dialyzed for one day and preserved at 4° C. LDL (400 μg) and aqueous copper sulfate solution (final concentration 5 μM) were added to bufferized Ham F-10 medium (2 ml, GIBCO, USA). DMSO or a solution (20 μl) of test compound dissolved in DMSO was added and the mixture was incubated at 37° C. for 24 hours. After the completion of the incubation, LDL peroxide in medium was allowed to develop color by thiobarbituric acid method and assayed as malondialdehyde. The activity of the test compound was expressed as malondialdehyde production inhibitory ratio (%), namely, the proportion of inhibition of production of malondialdehyde as compared to control.
smiles,measurement,setting,value
CCCCCCN1CCc2c(C)cc(C)c(NC(=O)C(C)C)c21 [Example 17],Result of Exp. Ex. 4: plasma lipoperoxidation inhibition,plasma,91.1%
same,Result of Exp. Ex. 2: reduction of serum total cholesterol,Male Wister rats; dose 10 mg/kg/day,27.0 * %
same,Result of Exp. Ex. 1: ACAT inhibition,ACAT; concentration 10^-5M,96.7 ** %
same,Result of Exp. Ex. 3: LDL peroxidation inhibition,LDL,89.6%
CCCCCCN1CCc2c(OC)cc(OC)c(NC(=O)C(C)(C)C)c21 [Example 7],Result of Exp. Ex. 4: plasma lipoperoxidation inhibition,plasma,86.4%
same,Result of Exp. Ex. 2: reduction of serum total cholesterol,Male Wister rats; dose 30 mg/kg/day,19.2 ** %
same,Result of Exp. Ex. 1: ACAT inhibition,ACAT; concentration 10^-5M,96.2 ** %
same,Result of Exp. Ex. 3: LDL peroxidation inhibition,LDL,86.6%
"Cc1cc(C)c(NC(=O)N(Cc2ccc3c(c2)Cc2ccccc2-3)C2CCCCCC2)c(C)c1 [YM-750, 1-cycloheptyl-1-[(2-fluorenyl)methyl]-3-(2,4,6-trimethylphenyl)urea, reference compound]",Result of Exp. Ex. 2: reduction of serum total cholesterol,Male Wister rats; dose 30 mg/kg/day,43.8 ** %
same,Result of Exp. Ex. 1: ACAT inhibition,ACAT; concentration 10^-5M,92.3 ** %
same,Result of Exp. Ex. 3: LDL peroxidation inhibition,LDL,0%
"CCCCCCN1CCc2c(C)cc(C)c(NC(=O)NCCCC)c21 [Example 4, 1-butyl-3-(1-hexyl-4,6-dimethylindolin-7-yl)urea]",Result of Exp. Ex. 4: plasma lipoperoxidation inhibition,plasma,92.0%
same,Result of Exp. Ex. 2: reduction of serum total cholesterol,Male Wister rats; dose 30 mg/kg/day,21.4 ** %
same,Result of Exp. Ex. 1: ACAT inhibition,ACAT; concentration 10^-5M,94.9 ** %
same,Result of Exp. Ex. 3: LDL peroxidation inhibition,LDL,59.5%
CCCCN1CCc2c(C)cc(C)c(NC(=O)C(C)(C)C)c21 [Example 8],Result of Exp. Ex. 4: plasma lipoperoxidation inhibition,plasma,85.1%
same,Result of Exp. Ex. 2: reduction of serum total cholesterol,Male Wister rats; dose 30 mg/kg/day,48.0 ** %
same,Result of Exp. Ex. 1: ACAT inhibition,ACAT; concentration 10^-5M,99.7 ** %
same,Result of Exp. Ex. 3: LDL peroxidation inhibition,LDL,91.9%
CCCCCCN1CCc2c(C)cc(C)c(NC(=O)C(C)(C)COC(C)=O)c21 [Example 29],Result of Exp. Ex. 4: plasma lipoperoxidation inhibition,plasma,91.1%
same,Result of Exp. Ex. 2: reduction of serum total cholesterol,Male Wister rats; dose 30 mg/kg/day,6.9 ** %
same,Result of Exp. Ex. 1: ACAT inhibition,ACAT; concentration 10^-5M,86.6 ** %
same,Result of Exp. Ex. 3: LDL peroxidation inhibition,LDL,91.9%
COCCN1CCc2c(C)cc(C)c(NC(=O)C(C)(C)C)c21 [Example 23],Result of Exp. Ex. 4: plasma lipoperoxidation inhibition,plasma,90.5%
same,Result of Exp. Ex. 2: reduction of serum total cholesterol,Male Wister rats; dose 30 mg/kg/day,23.6 ** %
same,Result of Exp. Ex. 1: ACAT inhibition,ACAT; concentration 10^-5M,88.8 ** %
same,Result of Exp. Ex. 3: LDL peroxidation inhibition,LDL,54.8%
CCCCCCN1CCc2c(C)cc(C)c(NC(=O)C(C)(C)CCCCCC)c21 [Example 15],Result of Exp. Ex. 4: plasma lipoperoxidation inhibition,plasma,90.1%
same,Result of Exp. Ex. 2: reduction of serum total cholesterol,Male Wister rats; dose 10 mg/kg/day,35.0 * %
same,Result of Exp. Ex. 1: ACAT inhibition,ACAT; concentration 10^-5M,93.1 ** %
same,Result of Exp. Ex. 3: LDL peroxidation inhibition,LDL,12.3%
CCCCCCN1CCc2c(C)cc(C)c(NC(=O)C(C)(C)CCCC)c21 [Example 14],Result of Exp. Ex. 4: plasma lipoperoxidation inhibition,plasma,93.1%
same,Result of Exp. Ex. 2: reduction of serum total cholesterol,Male Wister rats; dose 30 mg/kg/day,53.9 ** %
same,Result of Exp. Ex. 1: ACAT inhibition,ACAT; concentration 10^-5M,96.6 ** %
same,Result of Exp. Ex. 3: LDL peroxidation inhibition,LDL,88.3%
"CC(C)(Sc1cc(C(C)(C)C)c(O)c(C(C)(C)C)c1)Sc1cc(C(C)(C)C)c(O)c(C(C)(C)C)c1 [Probucol, 4,4′-isopropylidenedithiobis(2,6-di-t-butylphenol), reference compound]",Result of Exp. Ex. 4: plasma lipoperoxidation inhibition,plasma,87.5%
same,Result of Exp. Ex. 2: reduction of serum total cholesterol,Male Wister rats; dose 10 mg/kg/day,7.3 * %
same,Result of Exp. Ex. 1: ACAT inhibition,ACAT; concentration 10^-5M,3.4 ** %
same,Result of Exp. Ex. 3: LDL peroxidation inhibition,LDL,89.4%
CCCCCCN1CCc2c(C)cc(C)c(NC(=O)C(C)(C)CO)c21 [Example 28],Result of Exp. Ex. 4: plasma lipoperoxidation inhibition,plasma,91.1%
same,Result of Exp. Ex. 2: reduction of serum total cholesterol,Male Wister rats; dose 100 mg/kg/day,20.8 *** %
same,Result of Exp. Ex. 1: ACAT inhibition,ACAT; concentration 10^-5M,79.4 ** %
same,Result of Exp. Ex. 3: LDL peroxidation inhibition,LDL,92.2%
Cc1cc(C)c(NC(=O)C(C)(C)C)c2c1CCN2CC(C)C [Example 32],Result of Exp. Ex. 4: plasma lipoperoxidation inhibition,plasma,89.1%
same,Result of Exp. Ex. 2: reduction of serum total cholesterol,Male Wister rats; dose 30 mg/kg/day,57.4 ** %
same,Result of Exp. Ex. 1: ACAT inhibition,ACAT; concentration 10^-5M,93.9 ** %
same,Result of Exp. Ex. 3: LDL peroxidation inhibition,LDL,85.3%
"CCCCCCN1CCc2c1cc(C)c(NC(=O)C(C)(C)C)c2C [Example 2, N-(1-hexyl-4,6-dimethylindolin-5-yl)-2,2-dimethylpropanamide]",Result of Exp. Ex. 4: plasma lipoperoxidation inhibition,plasma,95.8%
same,Result of Exp. Ex. 1: ACAT inhibition,ACAT; concentration 10^-5M,59.9 ** %
same,Result of Exp. Ex. 3: LDL peroxidation inhibition,LDL,99.5%
CCCCCCCCN1CCc2c(C)cc(C)c(NC(=O)C(C)(C)C)c21 [Example 11],Result of Exp. Ex. 4: plasma lipoperoxidation inhibition,plasma,78.8%
same,Result of Exp. Ex. 2: reduction of serum total cholesterol,Male Wister rats; dose 10 mg/kg/day,59.5 * %
same,Result of Exp. Ex. 1: ACAT inhibition,ACAT; concentration 10^-5M,99.2 ** %
same,Result of Exp. Ex. 3: LDL peroxidation inhibition,LDL,91.6%
CCCCCCN1CCc2c(C)cc(C)c(NC(=O)C(C)(C)COCC)c21 [Example 34],Result of Exp. Ex. 4: plasma lipoperoxidation inhibition,plasma,89.8%
same,Result of Exp. Ex. 2: reduction of serum total cholesterol,Male Wister rats; dose 30 mg/kg/day,50.2 ** %
same,Result of Exp. Ex. 1: ACAT inhibition,ACAT; concentration 10^-5M,91.0 ** %
same,Result of Exp. Ex. 3: LDL peroxidation inhibition,LDL,82.9%
Cc1cc(C)c(NC(=O)C(C)(C)C)c2c1CCN2CCCCCC(=O)O [Example 26],Result of Exp. Ex. 4: plasma lipoperoxidation inhibition,plasma,90.1%
same,Result of Exp. Ex. 2: reduction of serum total cholesterol,Male Wister rats; dose 30 mg/kg/day,37.4 ** %
same,Result of Exp. Ex. 1: ACAT inhibition,ACAT; concentration 10^-5M,26.5 ** %
same,Result of Exp. Ex. 3: LDL peroxidation inhibition,LDL,43.3%
CCCCCCC(C)(C)C(=O)Nc1c(C)cc(C)c2c1N(CCCC)CC2 [Example 10],Result of Exp. Ex. 4: plasma lipoperoxidation inhibition,plasma,82.6%
same,Result of Exp. Ex. 2: reduction of serum total cholesterol,Male Wister rats; dose 30 mg/kg/day,55.2 ** %
same,Result of Exp. Ex. 1: ACAT inhibition,ACAT; concentration 10^-5M,98.7 ** %
same,Result of Exp. Ex. 3: LDL peroxidation inhibition,LDL,18.3%
CCCCCCC(C)(C)C(=O)Nc1c(C)cc(C)c2c1N(CC)CC2 [Example 13],Result of Exp. Ex. 4: plasma lipoperoxidation inhibition,plasma,87.1%
same,Result of Exp. Ex. 2: reduction of serum total cholesterol,Male Wister rats; dose 30 mg/kg/day,28.4 ** %
same,Result of Exp. Ex. 1: ACAT inhibition,ACAT; concentration 10^-5M,96.0 ** %
same,Result of Exp. Ex. 3: LDL peroxidation inhibition,LDL,82.4%
CCCCCCN1CCc2c(C)cc(C)c(NC(=O)CC(C)(C)CC(=O)O)c21 [Example 18],Result of Exp. Ex. 4: plasma lipoperoxidation inhibition,plasma,87.1%
same,Result of Exp. Ex. 2: reduction of serum total cholesterol,Male Wister rats; dose 30 mg/kg/day,22.3 ** %
same,Result of Exp. Ex. 1: ACAT inhibition,ACAT; concentration 10^-4M,69.6 * %
same,Result of Exp. Ex. 3: LDL peroxidation inhibition,LDL,34.0%
CCCCCCN1CCc2c(C)cc(C)c(NC(=O)CCCC)c21 [Example 21],Result of Exp. Ex. 4: plasma lipoperoxidation inhibition,plasma,91.4%
same,Result of Exp. Ex. 2: reduction of serum total cholesterol,Male Wister rats; dose 10 mg/kg/day,28.3 * %
same,Result of Exp. Ex. 1: ACAT inhibition,ACAT; concentration 10^-5M,94.4 ** %
same,Result of Exp. Ex. 3: LDL peroxidation inhibition,LDL,92.1%
